Measured values as given in paper PMC6104039 (Nature Communications, 2018).
Values joined by “and” are separate entries in the source; they are usually repeats but may differ in a detail not shown here. Equal entries are not always repeated.

Test system: HEK293 cells
Assay: Endogenous ceramide, HexCer and SM levels in cells treated 24 h, targeted LC-MS/MS
Type: cell-based
Set-up: Cer 18:1/24:0 content in HEK293 cells / Cer 18:1/24:1 content in HEK293 cells / HexCer 18:1/16:0 content in HEK293 cells / HexCer 18:1/18:0 content in HEK293 cells / HexCer 18:1/20:0 content in HEK293 cells / HexCer 18:1/22:0 content in HEK293 cells / Cer 18:1/16:0 content in HEK293 cells / Cer 18:1/18:0 content in HEK293 cells / Cer 18:1/20:0 content in HEK293 cells / Cer 18:1/22:0 content in HEK293 cells: unit not given here
Conditions: replicates, raw data Suppl Fig 1
Description: Lipids were then extracted using MTBE/methanol/water as described above.
HEK293 cell culture experiment: Levels of each lipid in P053-treated HEK293 cells were normalised to the mean of the vehicle control group, and each concentration was compared to the control using ANOVA with Dunnett’s post-test. P values were adjusted for multiple comparisons in GraphPad PRISM.
Supplementary Figure 1. Ceramide, SM, and HexCer levels in HEK293 cells treated with
P053. Absolute lipid levels were determined by targeted LC-MS/MS, relative to external
standard curves. Results are mean ± SEM (n = 4) from one of two identical experiments.
Statistically significant results, based on two independent experiments, are as indicated in
Figure 2b-d. Raw data for these figures is provided in Supplementary Data File 1.

C[C@@](N)(CO)CCc1ccc(OCc2ccc(Cl)c(Cl)c2)cc1 [P053, (S)-2-amino-4-(4-(3,4-dichlorobenzyloxy)phenyl)-2-methylbutan-1-ol]
Cer 18:1/24:0 content in HEK293 cells (P053 10 nM): 78.2507 and 97.4893 and 100.975 and 120.086 | Cer 18:1/24:1 content in HEK293 cells (P053 10 nM): 41.2869 and 36.9476 and 41.283 and 38.2211 | HexCer 18:1/16:0 content in HEK293 cells (P053 10 nM): 30.7043 and 33.6425 and 33.4465 and 30.9255 | HexCer 18:1/18:0 content in HEK293 cells (P053 10 nM): 4.5494 and 4.09 and 4.473 and 4.32 | HexCer 18:1/20:0 content in HEK293 cells (P053 10 nM): 0.3088 and 0.3692 and 0.4154 and 0.4356 | HexCer 18:1/22:0 content in HEK293 cells (P053 10 nM): 36.8189 and 34.9551 and 38.6561 and 38.9837 | HexCer 18:1/24:0 content in HEK293 cells (P053 10 nM): 199.303 and 216.657 and 249.013 and 199.834 | HexCer 18:1/24:1 content in HEK293 cells (P053 10 nM): 70.2405 and 72.3688 and 73.5755 and 68.734 | SM 32:1 content in HEK293 cells (P053 10 nM): 35.2485 and 30.6751 and 30.1932 and 30.0675 | SM 34:1 content in HEK293 cells (P053 10 nM): 296.401 and 243.663 and 224.502 and 225.737 | SM 34:2 content in HEK293 cells (P053 10 nM): 47.2234 and 40.324 and 36.1571 and 38.6716 | SM 36:1 content in HEK293 cells (P053 10 nM): 29.6301 and 20.7933 and 22.4748 and 21.0053 | SM 36:2 content in HEK293 cells (P053 10 nM): 11.2341 and 9.942 and 8.241 and 8.207 | SM 38:1 content in HEK293 cells (P053 10 nM): 6.182 and 8.401 and 6.6333 and 8.787 | SM 40:1 content in HEK293 cells (P053 10 nM): 40.0944 and 41.0366 and 34.4775 and 35.2843 | SM 40:2 content in HEK293 cells (P053 10 nM): 10.3276 and 10.9643 and 10.3385 and 8.643 | SM 42:1 content in HEK293 cells (P053 10 nM): 68.7535 and 68.4711 and 69.6713 and 77.5442 | SM 42:2 content in HEK293 cells (P053 10 nM): 119.092 and 115.121 and 104.672 and 105.467 | Cer 18:1/16:0 content in HEK293 cells (P053 30 nM): 19.0547 and 20.8444 and 18.7423 and 20.5749 | Cer 18:1/18:0 content in HEK293 cells (P053 30 nM): 5.081 and 5.075 and 4.316 and 4.99 | Cer 18:1/20:0 content in HEK293 cells (P053 30 nM): 0.7183 and 0.7479 and 0.6521 and 0.6855 | Cer 18:1/22:0 content in HEK293 cells (P053 30 nM): 57.3121 and 66.2959 and 65.6669 and 64.5364 | Cer 18:1/24:0 content in HEK293 cells (P053 30 nM): 85.8777 and 134.225 and 118.415 and 97.9167 | Cer 18:1/24:1 content in HEK293 cells (P053 30 nM): 37.3744 and 44.4522 and 42.1609 and 41.0899 | HexCer 18:1/16:0 content in HEK293 cells (P053 30 nM): 29.7152 and 31.7982 and 33.8438 and 30.9723 | HexCer 18:1/18:0 content in HEK293 cells (P053 30 nM): 3.0394 and 3.951 and 4.099 and 3.127 | HexCer 18:1/20:0 content in HEK293 cells (P053 30 nM): 0.3329 and 0.4128 and 0.4628 and 0.5232 | HexCer 18:1/22:0 content in HEK293 cells (P053 30 nM): 32.4873 and 39.9972 and 37.7095 and 34.9843 | HexCer 18:1/24:0 content in HEK293 cells (P053 30 nM): 190.472 and 249.822 and 223.238 and 200.878 | HexCer 18:1/24:1 content in HEK293 cells (P053 30 nM): 66.6616 and 76.2502 and 69.0398 and 65.5993 | SM 32:1 content in HEK293 cells (P053 30 nM): 30.2036 and 32.0092 and 28.7617 and 34.5111 | SM 34:1 content in HEK293 cells (P053 30 nM): 248.003 and 262.537 and 249.572 and 281.872 | SM 34:2 content in HEK293 cells (P053 30 nM): 41.231 and 41.1196 and 40.1333 and 43.2759 | SM 36:1 content in HEK293 cells (P053 30 nM): 22.0304 and 22.5253 and 18.9401 and 24.6728 | SM 36:2 content in HEK293 cells (P053 30 nM): 9.089 and 8.502 and 8.127 and 10.0466 | SM 38:1 content in HEK293 cells (P053 30 nM): 14.9847 and 8.56 and 5.18 and 11.7454 | SM 40:1 content in HEK293 cells (P053 30 nM): 39.8982 and 44.3327 and 34.2754 and 42.2123 | SM 40:2 content in HEK293 cells (P053 30 nM): 9.856 and 9.764 and 9.362 and 10.5652 | SM 42:1 content in HEK293 cells (P053 30 nM): 69.7563 and 80.9547 and 78.46 and 71.8434 | SM 42:2 content in HEK293 cells (P053 30 nM): 104.731 and 121.981 and 114.303 and 118.688 | Cer 18:1/16:0 content in HEK293 cells (P053 100 nM): 22.9494 and 19.2357 and 22.5073 and 19.0496 | Cer 18:1/18:0 content in HEK293 cells (P053 100 nM): 2.972 and 3.68 and 3.21 and 2.092 | Cer 18:1/20:0 content in HEK293 cells (P053 100 nM): 0.613 and 0.738 and 0.687 and 0.5601 | Cer 18:1/22:0 content in HEK293 cells (P053 100 nM): 66.0373 and 65.445 and 75.6523 and 61.1907 | Cer 18:1/24:0 content in HEK293 cells (P053 100 nM): 95.8984 and 114.847 and 144.796 and 106.353 | Cer 18:1/24:1 content in HEK293 cells (P053 100 nM): 43.7952 and 41.4019 and 48.5214 and 41.0347 | HexCer 18:1/16:0 content in HEK293 cells (P053 100 nM): 28.7244 and 29.2314 and 27.3495 and 32.1782 | HexCer 18:1/18:0 content in HEK293 cells (P053 100 nM): 1.552 and 2.033 and 2.382 and 2.572 | HexCer 18:1/20:0 content in HEK293 cells (P053 100 nM): 0.3018 and 0.2953 and 0.2763 and 0.1537 | HexCer 18:1/22:0 content in HEK293 cells (P053 100 nM): 35.0199 and 40.376 and 33.9893 and 41.9484 | HexCer 18:1/24:0 content in HEK293 cells (P053 100 nM): 193.278 and 206.781 and 205.001 and 225.138 | HexCer 18:1/24:1 content in HEK293 cells (P053 100 nM): 66.6213 and 67.2246 and 64.4273 and 72.2662 | SM 32:1 content in HEK293 cells (P053 100 nM): 33.5311 and 33.1495 and 31.0137 and 33.9978 | SM 34:1 content in HEK293 cells (P053 100 nM): 239.205 and 244.554 and 241.828 and 261.421 | SM 34:2 content in HEK293 cells (P053 100 nM): 40.9604 and 43.1506 and 39.5005 and 44.6858 | SM 36:1 content in HEK293 cells (P053 100 nM): 15.6181 and 17.1499 and 17.2078 and 18.9256 | SM 36:2 content in HEK293 cells (P053 100 nM): 6.971 and 7.206 and 7.1332 and 7.405 | SM 38:1 content in HEK293 cells (P053 100 nM): 4.352 and 7.605 and 11.0645 and 10.3031 | SM 40:1 content in HEK293 cells (P053 100 nM): 39.6185 and 38.4983 and 41.6326 and 45.0957 | SM 40:2 content in HEK293 cells (P053 100 nM): 10.6428 and 11.1113 and 10.5382 and 10.6417 | SM 42:1 content in HEK293 cells (P053 100 nM): 70.6629 and 69.6062 and 82.0245 and 85.9318 | SM 42:2 content in HEK293 cells (P053 100 nM): 112.606 and 107.685 and 114.026 and 114.211 | Cer 18:1/16:0 content in HEK293 cells (P053 300 nM): 17.822 and 19.0766 and 17.3933 | Cer 18:1/18:0 content in HEK293 cells (P053 300 nM): 1.8912 and 1.699 and 1.376 | Cer 18:1/20:0 content in HEK293 cells (P053 300 nM): 0.7162 and 0.4601 and 0.6576 | Cer 18:1/22:0 content in HEK293 cells (P053 300 nM): 64.624 and 69.7847 and 70.6121 | Cer 18:1/24:0 content in HEK293 cells (P053 300 nM): 94.7176 and 106.124 and 124.497 | Cer 18:1/24:1 content in HEK293 cells (P053 300 nM): 42.6517 and 39.4375 and 41.6471 | HexCer 18:1/16:0 content in HEK293 cells (P053 300 nM): 26.9367 and 27.3197 and 28.9409 | HexCer 18:1/18:0 content in HEK293 cells (P053 300 nM): 1.661 and 1.355 and 1.491 | HexCer 18:1/20:0 content in HEK293 cells (P053 300 nM): 0.2792 and 0.518 and 0.2446 | HexCer 18:1/22:0 content in HEK293 cells (P053 300 nM): 43.5691 and 40.2015 and 45.0568 | HexCer 18:1/24:0 content in HEK293 cells (P053 300 nM): 220.79 and 197.985 and 254.871 | HexCer 18:1/24:1 content in HEK293 cells (P053 300 nM): 63.1626 and 68.7371 and 74.9033 | SM 32:1 content in HEK293 cells (P053 300 nM): 31.4532 and 33.3582 and 37.098 | SM 34:1 content in HEK293 cells (P053 300 nM): 241.436 and 241.197 and 248.392 | SM 34:2 content in HEK293 cells (P053 300 nM): 42.0268 and 43.5268 and 45.2968 | SM 36:1 content in HEK293 cells (P053 300 nM): 14.7086 and 14.6722 and 17.3205 | SM 36:2 content in HEK293 cells (P053 300 nM): 6.184 and 6.8179 and 6.541 | SM 38:1 content in HEK293 cells (P053 300 nM): 9.78 and 11.6533 and 8.0822 | SM 40:1 content in HEK293 cells (P053 300 nM): 43.4372 and 43.0067 and 50.439 | SM 40:2 content in HEK293 cells (P053 300 nM): 12.0217 and 11.0813 and 11.4772 | SM 42:1 content in HEK293 cells (P053 300 nM): 70.0557 and 70.3641 and 94.669 | SM 42:2 content in HEK293 cells (P053 300 nM): 117.582 and 110.303 and 130.267
